Assays:
AdipoR1 [1] = target: T1, AdipoR1 (Homo sapiens, UniProt Q96A54); assay: Measurement of AMPK phosphorylation ability (Assay 1), HEK 293T cells, Western blotting; assay type: cell-based; design: HEK 293T cells (ATCC; CRL-3216, medium; host or cells: HEK 293T; conditions: 10 minutes
T1 sequence (Q96A54 1-375): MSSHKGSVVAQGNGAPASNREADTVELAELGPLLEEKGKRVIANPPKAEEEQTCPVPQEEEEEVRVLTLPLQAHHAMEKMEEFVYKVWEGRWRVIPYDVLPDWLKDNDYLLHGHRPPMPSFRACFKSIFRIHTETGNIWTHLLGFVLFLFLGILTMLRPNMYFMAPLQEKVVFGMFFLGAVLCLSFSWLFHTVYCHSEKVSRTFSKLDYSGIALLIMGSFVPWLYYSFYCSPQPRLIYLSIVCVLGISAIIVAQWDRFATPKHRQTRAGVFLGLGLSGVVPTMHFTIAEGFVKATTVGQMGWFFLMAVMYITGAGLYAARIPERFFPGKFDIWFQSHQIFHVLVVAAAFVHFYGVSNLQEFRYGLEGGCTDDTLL
Experimental: (§1) The AMPK phosphorylation ability of the respective compounds according to the present invention was measured by using differentiated C2C12 cells or HEK 293T cells.
HEK 293T cells (ATCC; CRL-3216, medium; DMEM, Fetal Bovine Serum (FBS)) were cultured in a 12- or 24-well plate until they reached 100% confluency (37° C., 5% CO2).
After starvation, a test compound listed in Tables 10 and 11 (concentration: 25 μM, 50 μM) was added thereto, and after 10 minutes, the medium was discarded and the plate was frozen with liquid nitrogen.
(§2) To the 12- or 24-well cell plate which had been frozen was added 100 or 150 μL of Cell lysis buffer pH 7.4 (50 mM HEPES (pH 7.4), 2 mM sodium orthovanadate, 10 mM sodium pyrophosphate, 10 mM NaF, 2 mM EDTA, 2 mM EGTA, 0.1% (v/v) NP-40, 0.2 mM PMSF), and the cells were scraped off with a cell scraper, suspended and transferred into a micro centrifugal tube. And then, the cells were ultrasonically crushed (1 second×3 times) with a sonicator. Centrifugation was performed at 4° C. at 15,000 rpm for 15 minutes, and the supernatant was recovered into a new tube.
(§3) To 100 μL of the supernatant was added 25 μL of 5× sample buffer (280 mM Tris-HCl (pH 6.9), 40% glycerol, 10% (3-mercaptoethanol, 13% SDS, a small amount of bromophenol blue) and mixed together. The rest of the supernatant was used for protein quantification, and the protein concentrations were uniformed by adding 1× sample buffer depending on the concentration of each sample.
(§4) An electrophoresis chamber was filled with 1× SDS buffer (25 mM Tris-HCl, 250 mM glycine, 0.1% SDS), and the sample was applied to a well of polyacrylamide gel. Electrophoresis was performed until the bromophenol blue in the sample reached to the bottom of the gel.
(§5) A filter paper was soaked in 1× Transfer buffer sufficiently, above which the PVDF membrane and the gel after electrophoresis were stacked in this order, and thereabove a filter paper which had been soaked in 1× Transfer buffer sufficiently was further stacked, from which an air was removed and the resultant was set in semi-dry type transfer apparatus and transferred (7V, 35 minutes).
(§6) An unnecessary portion of the blotted membrane was cutoff, and the rest was immediately soaked in blocking buffer (5% skimmed milk in Rinse buffer), and shaken at room temperature at 40 rpm for 3 hours.
(§7) After blocking, the membrane was transferred into Rinse buffer, and washed at room temperature for 10 minutes while shaking. The membrane was soaked in a primary antibody solution (AMPK alpha Antibody (Cell signaling; #2532) 1/1,000 in Rinse buffer, Phospho-AMPK alpha (Thr172) (40H9) antibody (Cell signaling; #2535) 1/1,000 in Rinse buffer), and shaken at 4° C. at 40 rpm overnight.
(§8) The membrane was soaked in a secondary antibody solution (goat anti-rabbit IgG-HRP Antibody (Santa Cruz; sc-2030) 1/2,000 in Rinse buffer), and shaken at room temperature at 40 rpm for 1 hour.
(§9) After the membrane was washed for 45 minutes in the same way as after the primary antibody reaction, the membrane was soaked in a chemiluminescent reaction solution (ECL Western Blotting Detection Reagents, GE Healthcare) for about 1 minute. An excess of the reaction solution was removed, and then the membranes were arranged on a transparent film and sandwiched with it, with which an X-ray film was exposed in a darkroom (for about several seconds to 60 seconds) to develop the film.
(§10) The X-ray film was scanned to take the image, for which the band was measured by using the image analysis software “Image J” to determine the respective amounts of pAMPK and AMPK.

AdipoR1 [2] = target: T1, AdipoR1; assay: Measurement of AMPK phosphorylation ability (Assay 2), HEK 293T cells with unrelated or AdipoR1 siRNA; assay type: cell-based; design: HEK 293T cells (ATCC; CRL-3216, medium; host or cells: HEK 293T
Experimental: HEK 293T cells (medium; DMEM, 10% FBS) were cultured in a 24-well plate until they reached 60% confluency (37° C., 5% CO2).
(§11) First, 1 μL of Lipofectamine RNAiMAX and 50 μL of OPTI-MEM were mixed, and then 5 μM siRNA (sense siRNA sequence: […]tt (SEQ ID NO: 1)) and 50 μL of OPTI-MEM were mixed and the resultants were left to stand at room temperature for 5 minutes. And then, the 1 μL Lipofectamine RNAiMAX/50 μL OPTI-MEM and the 5 μM siRNA/50 μL OPTI-MEM were mixed, and the resultant was left to stand at room temperature for 10 minutes, which was added to the cells.
After 5 minutes, the medium (DMEM, 10% FBS) was replaced, and after starvation on the next day, a test compound listed in Tables 10 and 11 was added thereto. After 10 minutes, the medium was discarded and the plate was frozen with liquid nitrogen.
(§12) The respective amounts of pAMPK and AMPK were determined in the same way as in the above Assay 1.

AdipoR1 [3] = assay: Measurement of AMPK phosphorylation ability (Assay 2), C2C12 cells with unrelated or AdipoR1 siRNA; assay type: cell-based, Mouse
Experimental: C2C12 cells (ATCC; CRL-1772, medium; DMEM, 10% Fetal Bovine Serum (FBS)) were cultured in a 12- or 24-well plate until they reached 100% confluency (37° C., 5% CO2). The medium was changed to DMEM, 2.5% Horse Serum (HS) and differentiation was started. The medium (DMEM, 2.5% HS) was replaced two days after the start of differentiation. The medium (DMEM, 2.5% HS) was further replaced two days after that.
as §11, with “On the next day following the replacement of the medium, first,” for “First,”
After 5 minutes, the medium (DMEM, 2.5 HS) was replaced, and after starvation on the next day, a test compound listed in Table 12 was added thereto. After 10 minutes, the medium was discarded and the plate was frozen with liquid nitrogen.
as §12

AdipoR1 [4] = target: T2, AdipoR1 (Mus musculus, UniProt Q91VH1); assay: Measurement of AMPK phosphorylation ability (Assay 1), differentiated C2C12 cells, Western blotting; assay type: cell-based; conditions: 10 μM, 10 minutes
T2 construct: C2C12 cells (ATCC; CRL-1772, medium; host or cells: differentiated C2C12
T2 sequence (Q91VH1 1-375): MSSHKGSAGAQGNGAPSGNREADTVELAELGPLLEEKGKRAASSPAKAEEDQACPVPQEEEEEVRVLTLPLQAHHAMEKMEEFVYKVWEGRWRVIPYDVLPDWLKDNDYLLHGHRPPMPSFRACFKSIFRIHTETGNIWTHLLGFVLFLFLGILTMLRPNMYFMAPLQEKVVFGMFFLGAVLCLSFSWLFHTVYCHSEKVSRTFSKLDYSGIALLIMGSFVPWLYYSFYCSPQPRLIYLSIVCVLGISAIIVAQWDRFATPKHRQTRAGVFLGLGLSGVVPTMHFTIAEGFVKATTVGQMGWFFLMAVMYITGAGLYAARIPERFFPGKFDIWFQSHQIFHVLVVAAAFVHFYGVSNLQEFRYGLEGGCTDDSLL
Experimental: as §1
C2C12 cells (ATCC; CRL-1772, medium; DMEM, 10% FBS) were cultured in a 12- or 24-well plate until they reached 100% confluency (37° C., 5% CO2).
The medium was changed to 2.5% Horse Serum (HS) and differentiation was started. The medium (DMEM, 2.5% HS) was replaced every three days.
After starvation, a test compound listed in Table 12 (concentration: 10 μM) was added thereto, and after 10 minutes, the medium was discarded and the plate was frozen with liquid nitrogen.
as §2, §3, §4, §5, §6, §7, §8, §9, §10

SMILES	pAMPK/AMPK (%) (AdipoR1 [1]; 25 μM)	pAMPK/AMPK (%) (AdipoR1 [1]; 50 μM)	pAMPK/AMPK (ratio) siRNA, AdipoR1 siRNA (AdipoR1 [2]) [ratio]	pAMPK/AMPK (ratio) siRNA, unrelated siRNA (AdipoR1 [2]) [ratio]	pAMPK/AMPK (ratio) siRNA, AdipoR1 siRNA (AdipoR1 [3]) [ratio]	pAMPK/AMPK (ratio) siRNA, unrelated siRNA (AdipoR1 [3]) [ratio]	pAMPK/AMPK (%) (AdipoR1 [4])
O=C(NCCC(=O)N1CCN(Cc2cccc(OC(F)(F)F)c2)CC1)c1ccc([N+](=O)[O-])cc1 [Compound 69]	80.04	100.79	4.03	5.28			
O=C(NCCC(=O)N1CCN(Cc2cccc(O)c2)CC1)c1ccc2ccccc2c1 [Compound 70]	84.71	88.96	2.46	2.43			
COc1cccc(NC(=O)c2ccc(CN3CCN(Cc4ccccc4)CC3)cc2)c1 [No. 103694]					3.34	4.67	81.05
COc1ccc(CN2CC[C@@]2(C)C(=O)NC2CCN(Cc3ccccc3)CC2)c2ccccc12 [No. 168198]					2.97	4.53	84.85
COc1ccc(CN2CCN(C(=O)CCNC(=O)c3ccc(C(C)(C)C)cc3)CC2)cc1C [No. 183665]					2.83	2.88	99.03
COc1ccccc1N1CCN(CCC(=O)Nc2cccc(Cl)c2)CC1 [No. 189474]					1.62	2.00	88.87
COc1ccccc1N1CCN(CCC(=O)Nc2ccccc2Cl)CC1 [No. 189640]					1.82	1.85	82.40
COc1ccc(C(=O)N2CCN(Cc3ccc(C(F)(F)F)cc3)CC2)cc1OC [No. 191294]					3.54	3.25	89.56
COCc1ccc(CN2CCC(Oc3ccc(C(=O)NC4CCCC4)cc3Cl)CC2)o1 [No. 195831]					2.98	2.88	99.10
O=C(NCc1ccncc1)c1ccc(OC2CCN(Cc3ccoc3)CC2)cc1 [No. 196462]					2.58	2.06	82.72
COCCNC(=O)c1ccc(OC2CCN(Cc3ccc(OC)cc3F)CC2)c(Cl)c1 [No. 197248]					2.55	2.09	89.63
COCCNC(=O)c1ccc(OC2CCN(Cc3ccc(C)s3)CC2)c(Cl)c1 [No. 197372]					1.96	1.78	85.37
Cc1ccccc1CN1CCC(Oc2ccc(C(=O)NCc3ccccn3)cc2)CC1 [No. 198637]					2.51	2.24	87.39
CC(C)(C)CN1CCC(Oc2ccc(C(=O)NCCc3ccncc3)cc2Cl)CC1 [No. 200737]					2.68	2.13	83.71
CC(C)N(Cc1cnn(C)c1)C(=O)c1ccc(OC2CCN(Cc3ccccn3)CC2)cc1 [No. 206685]					2.39	1.76	90.15
CCOCCCNC(=O)c1ccc(OC2CCN(CC(C)(C)C)CC2)c(Cl)c1 [No. 209705]					1.81	1.52	81.28
COCCNC(=O)c1ccc(OC2CCN([C@@H](C)COc3ccccc3)CC2)c(Cl)c1 [No. 211156]					2.59	2.36	93.79
CCOc1cccc(CN2CCC(Oc3ccc(C(=O)NCCOC)cc3Cl)CC2)c1 [No. 214617]					2.78	2.21	91.97

Reference: US20170298051A1, “ACTIVATOR OF ADIPONECTIN RECEPTOR” (THE UNIVERSITY OF TOKYO, priority 2013, published 2017)
